We go through seven molecules from patent US11680073B2, “Anticancer indenes, indanes, azaindenes, azaindanes, pharmaceutical compositions and uses” (ADT PHARMACEUTICALS, LLC, priority 2018, dated 2023).

Assay [1] has as its system HT-29, a non-Ras-driven line expressing wild-type, non-mutated Ras. The experiment in a line: Tumor cell growth inhibition, CellTiter-Glo ATP luminescence assay, HT-29. It counts as cell-based. Particulars: HT-29, 72 h, human colon tumor cells, 3-day treatment, ten-fold serial dilutions, read-out: micromolar IC50 for HT-29. As for the experimental part:
(§1) Human cancer cell lines are obtained from the American Type Culture Collection (ATCC). Cells are cultured using standard methods in RPMI-1640 growth medium supplemented with 5% fetal bovine serum (FBS). CellTiter-Glo ATP cell growth assay reagents are obtained from Promega and used according to the manufacturer's protocol. Cells are plated at a density of 5,000 cells per well in 96-well microplates or 1,250 cells per well in 384-well plates, then allowed to attach for at least 4 h. Test compounds are dissolved in dimethyl sulfoxide (DMSO), and this working stock is further diluted in growth medium for addition to cell cultures. Serial dilutions of the test compound are prepared in growth medium containing an equal amount of DMSO not exceeding 0.2% final concentration. Each compound concentration is tested in at least 3 separate samples per cell line. At the end of a 3-day treatment period, growth inhibition is analyzed using a bioluminescent assay of ATP concentration (Promega CellTiter-Glo) according to the manufacturer's protocol. Resulting luminescence is measured using the luminescence cartridge of the Molecular Devices Spectramax Paradigm microplate reader. Relative growth inhibition for each sample is determined by comparison with the values obtained for vehicle treated control samples. Growth inhibition values are plotted with the GraphPad Prism5 software using the 4-parameter logistic fit to obtain IC50 values, which corresponds to the growth inhibitory potency of the compound.
(§2) This selected example illustrates the use of well-established human colon tumor cell lines with widely divergent Ras activation status to determine tumor cell growth inhibitory activity (IC50 values) and Ras selectivity values for some selected exemplary compounds of the present invention. Cell lines thus employed in this example are HCT-116, a highly Ras-driven line expressing mutant Ras, and HT-29, a non-Ras-driven line expressing wild-type, non-mutated Ras. Cells are plated at 5000 cells/well in 96-well plates, ten-fold serial dilutions of compounds are tested, each tested concentration in at least 3 separate samples per cell line, and viable cell numbers are measured using the Cell Titer Glo ATP luminescence assay (Promega). […] FIGS. 5-7 provide examples of full data sets from which numerical values, including Ras selectivity indices, can be calculated; data sets are shown for selected exemplary compounds 2090, 2096 and 2183. […]
(In general: In ATP-based viability assays light output follows the ATP content of the culture.)

Assay [2] has as its system HCT-116, a highly Ras-driven line expressing mutant Ras. Description: Tumor cell growth inhibition, CellTiter-Glo ATP luminescence assay, HCT-116. It counts as cell-based, human. Particulars: for IC50: HCT-116, 72 h, human colon tumor cells, mutant Ras, 3-day treatment, ten-fold serial dilutions, read-out: micromolar IC50 for HCT-116; for HT-29/HCT-116 Ras Inhibitory Selectivity Index: ratio IC50 HT-29 / IC50 HCT-116, numbers greater than one indicate Ras selectivity. As for the experimental part: as §1, §2

Assay [3] has as its system cells expressing mutant Ras. Particulars: cited from earlier work.

Each structure is given as a SMILES string.

The IC50 is the midpoint of a concentration-inhibition curve.

Regarding `COc1cc(/C=C2/C(C)=C(CNC(=O)Cc3cccnc3)c3cc(F)ccc32)cc(OC)c1O` [compound 2096, (Z)—N-((5-fluoro-1-(4-hydroxy-3,5-dimethoxybenzylidene)-2-methyl-1H-inden-3-yl)methyl)-2-(pyridin-3-yl)acetamide], the IC50 in assay [1] amounted to 9 µM. Besides, in assay [2], the IC50 is 0.033 µM and the “HT-29/HCT-116 Ras Inhibitory Selectivity Index” value stood at 273.
The corresponding values for `COc1cc(/C=C2/C(C)=C(CNC(=O)c3cn[nH]c3)c3cc(F)ccc32)cc(OC)c1O` [compound 2183, (Z)—N-((5-fluoro-1-(4-hydroxy-3,5-dimethoxybenzylidene)-2-methyl-1H-inden-3-yl)methyl)-1H-pyrazole-4-carboxamide] are 9.28 µM, 0.42 µM and 22.
The matching figures for `COc1cc(/C=C2/C(C)=C(CNC(=O)c3ccco3)c3cc(F)ccc32)cc(OC)c1O` [compound 2090, (Z)—N-((5-fluoro-1-(4-hydroxy-3,5-dimethoxybenzylidene)-2-methyl-1H-inden-3-yl)methyl)furan-2-carboxamide]: 13 µM, 0.3 µM and 43.
Regarding `COc1cc(/C=C2/C(C)=C(CC(=O)NCc3cccnc3)c3cc(F)ccc32)cc(OC)c1B1OC(C)(C)C(C)(C)O1` [compound 2200, (Z)-2-(1-(3,5-dimethoxy-4-(4,4,5,5-tetramethyl-1,3,2-dioxaborolan-2-yl)benzylidene)-5-fluoro-2-methyl-1H-inden-3-yl)-N-(pyridin-3-ylmethyl)acetamide], in assay [1], the IC50 amounted to 6.65 µM. Further, in assay [2], the IC50 was 6.18 µM and the “HT-29/HCT-116 Ras Inhibitory Selectivity Index” value amounted to 1.08.
On to `COc1cc(/C=C2/C(C)=C(CC(=O)NCc3cccnc3)c3cc(F)ccc32)cc(OC)c1B(O)O` [compound 1736, (Z)-(4-((5-fluoro-2-methyl-3-(2-oxo-2-((pyridin-3-ylmethyl)amino)ethyl)-1H-inden-1-ylidene)methyl)-2,6-dimethoxyphenyl)boronic acid], for which the IC50 in assay [1] is 5.59 µM. Moreover, in assay [2], the IC50 was found to be 5.05 µM and the “HT-29/HCT-116 Ras Inhibitory Selectivity Index” value is 1.11.
As for `Cc1onc(C(=O)N2CCN(C(c3ccc(Cl)cc3)c3ccc(Cl)cc3)CC2)c1[N+](=O)[O-]` [ML210], the IC50 in assay [3] (cells expressing mutant Ras, read-out: IC50, growth inhibition of cells expressing mutant Ras) is 71 nM. Further, in assay [3] (versus cells lacking oncogenic Ras), the “selectivity versus cells lacking oncogenic Ras” value is 4 fold.
For `COc1cc(CC2c3ccc(F)cc3C(CC(=O)NCc3ccccc3)C2C)cc(OC)c1O` (centres unmarked) [compound 1796, N-benzyl-2-(6-fluoro-3-(4-hydroxy-3,5-dimethoxybenzyl)-2-methyl-2,3-dihydro-1H-inden-1-yl)acetamide], the IC50 turned out to be 8.03 µM in assay [1] and 0.212 µM in assay [2]. The “HT-29/HCT-116 Ras Inhibitory Selectivity Index” value in assay [2] came out at 38.
